{"source": "patent US10736883B2", "about": "“Triazole furan compounds as agonists of the APJ receptor” (AMGEN INC., priority 2016, dated 2020)"}
{"molecular_target": "APJ receptor (Homo sapiens (Human), UniProt P35414)", "sequence (P35414 whole entry)": "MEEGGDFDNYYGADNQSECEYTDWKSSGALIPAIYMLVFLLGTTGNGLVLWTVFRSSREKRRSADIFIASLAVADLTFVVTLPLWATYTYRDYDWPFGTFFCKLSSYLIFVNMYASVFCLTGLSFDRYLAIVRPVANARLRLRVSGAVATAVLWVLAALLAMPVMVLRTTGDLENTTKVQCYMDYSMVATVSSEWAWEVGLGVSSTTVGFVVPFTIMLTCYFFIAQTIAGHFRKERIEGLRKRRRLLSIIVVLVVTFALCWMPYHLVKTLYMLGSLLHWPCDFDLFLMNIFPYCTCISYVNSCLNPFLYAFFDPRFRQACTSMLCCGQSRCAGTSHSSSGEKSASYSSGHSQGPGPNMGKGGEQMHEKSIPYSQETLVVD", "assay": "[35S]GTPγS binding assay on membranes from CHO cells stably expressing human APJ receptor", "type": "biochemical", "settings": "membranes of CHO cells stably expressing human APJ receptor, means of several independent experiments, read-out: Activity hAPJ SPA EC50 IP", "in_short": "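EC50 values were obtained by non-linear regression of [35S]GTPγS (0.2 nM) binding after 90 min at RT, with nonspecific binding defined by 100 μM GTPγS. Reactions used human APJ–expressing CHO cell membranes on WGA PS beads in HEPES pH 7.5 buffer with 5 mM MgCl2, 200 mM NaCl, 3 μM GDP and 0.1% BSA.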", "units": {"EC50": "nM"}}
{"molecule": "COc1cnc([C@H](O)[C@@H](C)S(=O)(=O)Nc2nnc(-c3ccc(C)o3)n2-c2c(OC)cccc2OC)cn1", "note": "(single isomer, unassigned) [Example 177.0, (1S,2R)—N-(4-(2,6-Dimethoxyphenyl)-5-(5-methyl-2-furanyl)-4H-1,2,4-triazol-3-yl)-1-hydroxy-1-(5-methoxy-2-pyrazinyl)-2-propanesulfonamide or (1R,2S)—N-(4-(2,6-dimethoxyphenyl)-5-(5-methyl-2-furanyl)-4H-1,2,4-triazol-3-yl)-1-hydroxy-1-(5-methoxy-2-pyrazinyl)-2-propanesulfonamide]", "EC50": 2.8}
{"molecule": "COc1cccc(OC)c1-n1c(NS(=O)(=O)[C@@H](C)[C@H](O)c2coc(C)n2)nnc1-c1ccc(C)o1", "note": "(single isomer, unassigned) [Example 275.0, (1R,2S)—N-(4-(2,6-Dimethoxyphenyl)-5-(5-methyl-2-furanyl)-4H-1,2,4-triazol-3-yl)-1-hydroxy-1-(2-methyl-1,3-oxazol-4-yl)-2-propanesulfonamide or (1S,2R)—N-(4-(2,6-dimethoxyphenyl)-5-(5-methyl-2-furanyl)-4H-1,2,4-triazol-3-yl)-1-hydroxy-1-(2-methyl-1,3-oxazol-4-yl)-2-propanesulfonamide]", "EC50": 0.85}
{"molecule": "COc1cccc(OC)c1-n1c(NS(=O)(=O)[C@H]2C[C@@H](O)CN(c3nc(C)cc(C)n3)C2)nnc1-c1ccc(C)o1", "note": "(racemic) [Example 326.0, (3S,5R)—N-(4-(2,6-Dimethoxyphenyl)-5-(5-methylfuran-2-yl)-4H-1,2,4-triazol-3-yl)-1-(4,6-dimethylpyrimidin-2-yl)-5-hydroxypiperidine-3-sulfonamide and (3R,5S)—N-(4-(2,6-dimethoxyphenyl)-5-(5-methylfuran-2-yl)-4H-1,2,4-triazol-3-yl)-1-(4,6-dimethylpyrimidin-2-yl)-5-hydroxypiperidine-3-sulfonamide]", "EC50": 0.24}
{"molecule": "COc1cccc(OC)c1-n1c(NS(=O)(=O)[C@@H](C)[C@H](O)c2ccc(C#N)cn2)nnc1-c1ccc(C)o1", "note": "(single isomer, unassigned) [Example 40.0, (1R,2S)-1-(5-cyano-2-pyridinyl)-N-(4-(2,6-dimethoxyphenyl)-5-(5-methyl-2-furanyl)-4H-1,2,4-triazol-3-yl)-1-hydroxy-2-propanesulfonamide or (1S,2R)-1-(5-cyano-2-pyridinyl)-N-(4-(2,6-dimethoxyphenyl)-5-(5-methyl-2-furanyl)-4H-1,2,4-triazol-3-yl)-1-hydroxy-2-propanesulfonamide]", "EC50": 11}
{"molecule": "COc1cccc(OC)c1-n1c(NS(=O)(=O)[C@H]2CC[C@H]3CCCC(=O)N3C2)nnc1-c1ccc(C)o1", "note": "(single isomer, unassigned) [Example 173.0]", "EC50": 1.6}
{"molecule": "COc1cccc(OC)c1-n1c(NS(=O)(=O)C[C@@H](C)c2ncc(F)cn2)nnc1-c1ccc(C)o1", "note": "(single isomer, unassigned) [Example 123.0, (S)—N-(4-(2,6-Dimethoxyphenyl)-5-(5-methylfuran-2-yl)-4H-1,2,4-triazol-3-yl)-2-(5-fluoropyrimidin-2-yl)propane-1-sulfonamide or (R)—N-(4-(2,6-dimethoxyphenyl)-5-(5-methylfuran-2-yl)-4H-1,2,4-triazol-3-yl)-2-(5-fluoropyrimidin-2-yl)propane-1-sulfonamide]", "EC50": 0.24}
{"molecule": "COc1ccnc(N2C[C@H](O)C[C@H](S(=O)(=O)Nc3nnc(-c4ccc(C)o4)n3-c3c(OC)cccc3OC)C2)n1", "note": "(mixture of isomers) [Example 324.0, (3S,5R)—N-(4-(2,6-Dimethoxyphenyl)-5-(5-methyl-2-furanyl)-4H-1,2,4-triazol-3-yl)-5-hydroxy-1-(4-methoxy-2-pyrimidinyl)-3-piperidinesulfonamide and (3R,5S)—N-(4-(2,6-dimethoxyphenyl)-5-(5-methyl-2-furanyl)-4H-1,2,4-triazol-3-yl)-5-hydroxy-1-(4-methoxy-2-pyrimidinyl)-3-piperidinesulfonamide]", "EC50": 0.21}
{"molecule": "COc1cccc(OC)c1-n1c(NS(=O)(=O)[C@@H](C)Cc2ccc(Cl)cn2)nnc1-c1ccco1", "note": "(racemic) [Example 14.0, (2R)-1-(5-chloro-2-pyridinyl)-N-(4-(2,6-dimethoxyphenyl)-5-(2-furanyl)-4H-1,2,4-triazol-3-yl)-2-propanesulfonamide and (2S)-1-(5-chloro-2-pyridinyl)-N-(4-(2,6-dimethoxyphenyl)-5-(2-furanyl)-4H-1,2,4-triazol-3-yl)-2-propanesulfonamide]", "EC50": 0.2}
{"molecule": "COc1cccc(OC)c1-n1c(NS(=O)(=O)[C@@H](C)[C@@H](O)c2ccc(F)cn2)nnc1-c1ccc(C)o1", "note": "(single isomer, unassigned) [Example 57.0]", "EC50": 0.11}
{"molecule": "COc1cccc(OC)c1-n1c(NS(=O)(=O)CCc2ncc(Cl)cc2-c2cc[nH]n2)nnc1-c1ccco1", "note": "[Example 223.0, 2-(5-chloro-3-(1H-pyrazol-3-yl)-2-pyridinyl)-N-(4-(2,6-dimethoxyphenyl)-5-(2-furanyl)-4H-1,2,4-triazol-3-yl)ethanesulfonamide]", "EC50": 0.32}
{"molecule": "COc1cccc(OC)c1-n1c(NS(=O)(=O)[C@H](C)[C@@H](O)c2ccnc3c2OCCC3)nnc1-c1ccc(C)o1", "note": "(single isomer, unassigned) [Example 293.0, (1R,2S)-1-(3,4-Dihydro-2H-pyrano[3,2-b]pyridin-8-yl)-N-(4-(2,6-dimethoxyphenyl)-5-(5-methyl-2-furanyl)-4H-1,2,4-triazol-3-yl)-1-hydroxy-2-propanesulfonamide or (1S,2R)-1-(3,4-dihydro-2H-pyrano[3,2-b]pyridin-8-yl)-N-(4-(2,6-dimethoxyphenyl)-5-(5-methyl-2-furanyl)-4H-1,2,4-triazol-3-yl)-1-hydroxy-2-propanesulfonamide]", "EC50": 5.5}
{"molecule": "COC[C@H](C)n1c(NS(=O)(=O)[C@@H](C)[C@H](C)c2ncc(Cl)cn2)nnc1-c1ccc(C)o1", "note": "[Example 398.0, (2S,3R)-3-(5-chloro-2-pyrimidinyl)-N-(4-((2S)-1-methoxy-2-propanyl)-5-(5-methyl-2-furanyl)-4H-1,2,4-triazol-3-yl)-2-butanesulfonamide]", "EC50": 10}
{"molecule": "COc1ccccc1-n1c(NS(=O)(=O)[C@@H](C)Cc2ncc(F)cn2)nnc1-c1ccco1.COc1ccccc1-n1c(NS(=O)(=O)[C@H](C)Cc2ncc(F)cn2)nnc1-c1ccco1", "note": "(mixture of isomers) [Example 310.0, (2S)-1-(5-Fluoro-2-pyrimidinyl)-N-(5-(2-furanyl)-4-(2-methoxyphenyl)-4H-1,2,4-triazol-3-yl)-2-propanesulfonamide and (2R)-1-(5-fluoro-2-pyrimidinyl)-N-(5-(2-furanyl)-4-(2-methoxyphenyl)-4H-1,2,4-triazol-3-yl)-2-propanesulfonamide]", "EC50": 83}
{"molecule": "COCC[C@@H]([C@H](C)c1ncc(F)cn1)S(=O)(=O)Nc1nnc(-c2ccc(C)o2)n1-c1c(OC)cccc1OC", "note": "(single isomer, unassigned) [Example 67.0]", "EC50": 0.36}
{"molecule": "CCc1ccc(-c2nnc(NS(=O)(=O)[C@@H](C)Cc3ncc(F)cn3)n2-c2c(OC)cccc2OC)o1", "note": "(single isomer, unassigned) [Example 99.0, (2S)—N-(4-(2,6-Dimethoxyphenyl)-5-(5-ethyl-2-furanyl)-4H-1,2,4-triazol-3-yl)-1-(5-fluoro-2-pyrimidinyl)-2-propanesulfonamide or (2R)—N-(4-(2,6-dimethoxyphenyl)-5-(5-ethyl-2-furanyl)-4H-1,2,4-triazol-3-yl)-1-(5-fluoro-2-pyrimidinyl)-2-propanesulfonamide]", "EC50": 1}
{"molecule": "COc1cccc(OC)c1-n1c(NS(=O)(=O)[C@@H](C)[C@H](C)c2ncc(C)cn2)nnc1-c1ccc(C)o1", "note": "[Example 262.0, (2S,3R)-N-(4-(2,6-dimethoxyphenyl)-5-(5-methylfuran-2-yl)-4H-1,2,4-triazol-3-yl)-3-(5-methylpyrimidin-2-yl)butane-2-sulfonamide]", "EC50": 0.07}
{"molecule": "COc1cccc(OC)c1-n1c(NS(=O)(=O)[C@@H]2CCC[C@H]2c2ncc(F)cn2)nnc1-c1ccc(C)o1", "note": "(single isomer, unassigned) [Example 101.0, (1R,2S)—N-(4-(2,6-Dimethoxyphenyl)-5-(5-methyl-2-furanyl)-4H-1,2,4-triazol-3-yl)-2-(5-fluoro-2-pyrimidinyl)cyclopentanesulfonamide or (1S,2R)—N-(4-(2,6-dimethoxyphenyl)-5-(5-methyl-2-furanyl)-4H-1,2,4-triazol-3-yl)-2-(5-fluoro-2-pyrimidinyl)cyclopentanesulfonamide]", "EC50": 2}
{"molecule": "COc1cccc(OC)c1-n1c(NS(=O)(=O)[C@@H](C)Cc2ncc(Cl)cc2C#N)nnc1-c1ccco1", "note": "(mixture of isomers) [Example 18.0, (2S)-1-(5-chloro-3-cyano-2-pyridinyl)-N-(4-(2,6-dimethoxyphenyl)-5-(2-furanyl)-4H-1,2,4-triazol-3-yl)-2-propanesulfonamide and (2R)-1-(5-chloro-3-cyano-2-pyridinyl)-N-(4-(2,6-dimethoxyphenyl)-5-(2-furanyl)-4H-1,2,4-triazol-3-yl)-2-propanesulfonamide]", "EC50": 0.28}
{"molecule": "COc1cccc(OC)c1-n1c(NS(=O)(=O)[C@@H]2C[C@H](C#N)CN(c3ncc(F)cn3)C2)nnc1-c1ccc(C)o1", "note": "(single isomer, unassigned) [Example 174.0, (3R,5S)-5-Cyano-N-(4-(2,6-dimethoxyphenyl)-5-(5-methyl-2-furanyl)-4H-1,2,4-triazol-3-yl)-1-(5-fluoro-2-pyrimidinyl)-3-piperidinesulfonamide or (3S,5R)-5-cyano-N-(4-(2,6-dimethoxyphenyl)-5-(5-methyl-2-furanyl)-4H-1,2,4-triazol-3-yl)-1-(5-fluoro-2-pyrimidinyl)-3-piperidinesulfonamide]", "EC50": 1.9}
